This is an account of results in US11981618B2, “P62 ligand compound, and composition for preventing, ameliorating or treating proteinopathies comprising the same” (AUTOTAC INC., priority 2018, dated 2024).

“Also recorded” adds a separate entry of the source.

One assay has as its system p62 and LC3. Kind of assay: Autophagy activity in cultured cells by immunofluorescence staining and confocal microscopy (p62 and LC3 puncta). It is filed as cell-based, human. The note with it: for p62 activation/oligomerization, delivery to autophagosome and autophagy activity (p62 and LC3 puncta, co-existence): HeLa, 5 uM, 24 hours, FIGS. 6a and 6b; for p62 activation/oligomerization, delivery to autophagosome and autophagy activity (p62 and LC3 puncta), control compounds: different concentrations, FIG. 7. As to the method:
In order to confirm the p62 protein activity and the activity level of autophagy phenomenon by the compounds (Examples 1-19), immunofluorescence staining was performed using p62 and LC3 as markers. In order to confirm the p62 activity and the activity level of autophagy phenomenon by new p62 ligands and isomers thereof in cultured cells, HeLa cell line, which is a cell line derived from cervical cancer patient, was treated with the novel p62 ligand compounds (YOK-1106, YOK-1204, YOK-1504, YOK-2204, YOK-3304, YOK-4404, YOK-1107, YOK-1109, YOK-2207, YOK-2209, YT-4-1, YT-4-2, YT-6-1, YT-9-1 and YT-9-2) and cultured. Thereafter, as markers of the autophagy phenomenon, the expression level and location of LC3 puncta and the local co-existence with p62 puncta were observed.
For immunofluorescence staining, a cover glass was placed on a 24-well plate, cells were dispensed, cultured for 24 hours, and then treated with 5 uM of the novel p62 ligands according to the present invention. For the action of the compounds, additional cultures were performed for 24 hours, and then the medium was removed. Cells were fixed using formaldehyde at room temperature. In order to prevent non-specific staining, the cells were allowed to react with a blocking solution at room temperature for 1 hour, and then treated with LC3 antibody diluted at a certain ratio using the blocking solution, and allowed to reacted at room temperature for 1 hour. The antibody-treated cells were washed three times with PBS, and goat-derived secondary antibody was diluted at a certain ratio using the blocking solution, and then allowed to react at room temperature for 30 minutes. The cells were washed again with PBS three times, and for intracellular nuclear staining, the expression level, intracellular puncta formation and intracellular coexistence level of p62 and LC3 were observed through a confocal microscopy after DAPI staining.
In order to confirm p62 protein activity and the activity level of autophagy phenomenon of control compounds (YOK-A-1104, YOK-G-1104, YTK-1005, YTK-1105-1), immunofluorescence staining was performed in the same manner as in Experimental Example 4 by using p62 and LC3 as markers. YOK-A-1104 and YOK-G-1104 are compounds having the following structures.
The compounds were treated at different concentrations, and intracellular puncta of p62 or LC3, that is, the degree to which autophagosome was formed and p62 was delivered was observed by a confocal microscopy.

Another assay has as its system LC3. The assay is described as follows: Autophagy activity in cultured cells by immunoblotting using LC3 as a marker. It is filed as cell-based, human. The note with it: HeLa. As to the method: In order to evaluate the autophagy activity efficacy by the compounds (Examples 1-19), HeLa cell line, which is a cell line derived from a cervical cancer patient, was cultured using a DMEM medium containing 10% FBS and 1% streptomycin/penicillin in an incubator with 5% carbon dioxide. As representative compounds among the present compounds, YOK-1107, YOK-4404 and YOK-1104 were selected. In order to measure autophagy activity according to the treatment with these selected representative compounds, the respective cells were dispensed into 6 well plates. Additional cultures were performed […] so that the cells were completely attached to the surface of the plate. To find the concentration at which the respective compounds could increase the phenomenon of autophagy, the test compounds were diluted at 1, 2, 5, 10 and 20 μM and treated. After treatment with the respective compounds, the cells were cultured again in a cell incubator for 24 hours, and then the cells were collected. To extract proteins from the collected cells, 100 ul of lysis buffer (20 mM Tris (pH 7.4), 150 mM NaCl, 1% Triton X-100, 2 mM NaF, 2 mM EDTA, 2 mM beta-glycerophosphate, 5 mM sodium orthovanadate, 1 mM PMSF, leupeptin, aprotinin) was injected into each sample, and cells were lysed. Based on the measured total protein concentration, a sample buffer was added to each sample and allowed to react at 100° C. for 5 minutes. 5 ul was taken from the samples after the reaction, and dispensed into each well of acrylamide gel, and then immunoblotting was performed.
In order to investigate the autophagy activity efficacy by the compounds (Examples 1-19), immunoblotting was performed in the same manner as in Experimental Example 2 using LC3 as a marker. As for the difference, in order to evaluate the treatment time required for activation and the activity retention time, as the representative compounds selected among the present compounds, 5 μM of YOK-1107, YOK-1204, YOK-1304, YOK-2204, YOK-3304, […] treated for 1, 3, 6, 12, 24, 48 hours. On the other hand, as the representative compounds selected among the compounds of the present invention, […] YOK-1107, YOK-1109, YOK-2207, YOK-2209, YT-4-1, YT-4-2, YT-6-1, YT-6-2, YT-6-8, YT-6-7, YT-9-1, YT-9-2 were treated for 24 hours.
In order to investigate the autophagy activity efficacy of control compounds, immunoblotting was performed in the same manner as in Experimental Example 2 by using LC3 as a marker. As the control compounds, compounds having the following structure were used.
(A western blot detects proteins with antibodies after separation by electrophoresis.)

The target of the next assay is T1, p62 protein (Homo sapiens, UniProt Q13501).
T1 construct: endogenous in cells; host or cells: HEK293 (cell lysate treated with compounds)
Kind of assay: Oligomerization activity of p62 protein in cultured cells by immunoblotting. The conditions noted are these: HEK293 cell lysate treated with test compounds at room temperature for 2 hours; immunoblot, FIG. 2. It is filed as cell-based. The text has this:
In order to evaluate the p62 protein oligomerization activity efficacy by the compounds (Examples 1-19), HEK293 cell line, which is human embryonic kidney-derived cell, was collected. As representative compounds among the present compounds, YOK-1104, YOK-2204, YOK-3304, YOK-1204, YOK-4404, YOK-1107, YOK-1109, YOK-2207, YOK-2209, YT-4-1, YT-4-2, YT-6-1, YT-6-2, YT-6-7, YT-6-8, YT-9-1, YT-9-2 were selected. In order to measure intracellular p62 protein activation and oligomerization according to the treatment with these selected representative compounds, the respective cells were dispensed into a pi dish. The cells were collected after further culturing for 24 hours so that the cells were completely attached to the surface of the plate. 100 ul of lysis buffer (20 mM Tris, pH 7.4), 150 mM NaCl, 1% Triton X-100, 2 mM NaF, 2 mM EDTA, 2 mM beta-glycerophosphate, 5 mM sodium orthovanadate, 1 mM PMSF, leupeptin, aprotinin) were injected into each sample and the cells were lysed. Based on the measured total protein concentration, each sample was treated with test compounds at room temperature for 2 hours, and then a sample buffer was added and allowed to react at 95° C. for 10 minutes. 25 ul was taken from the samples after the reaction, and dispensed into each well of acrylamide gel, and then immunoblotting was performed.

[1] abbreviates: 5 μM, treated for 1, 3, 6, 12, 24, 48 hours, FIG. 4.
The mark [2] stands for this setting: treated for 24 hours (concentration not given), FIG. 4.

T1 sequence (Q13501 whole entry): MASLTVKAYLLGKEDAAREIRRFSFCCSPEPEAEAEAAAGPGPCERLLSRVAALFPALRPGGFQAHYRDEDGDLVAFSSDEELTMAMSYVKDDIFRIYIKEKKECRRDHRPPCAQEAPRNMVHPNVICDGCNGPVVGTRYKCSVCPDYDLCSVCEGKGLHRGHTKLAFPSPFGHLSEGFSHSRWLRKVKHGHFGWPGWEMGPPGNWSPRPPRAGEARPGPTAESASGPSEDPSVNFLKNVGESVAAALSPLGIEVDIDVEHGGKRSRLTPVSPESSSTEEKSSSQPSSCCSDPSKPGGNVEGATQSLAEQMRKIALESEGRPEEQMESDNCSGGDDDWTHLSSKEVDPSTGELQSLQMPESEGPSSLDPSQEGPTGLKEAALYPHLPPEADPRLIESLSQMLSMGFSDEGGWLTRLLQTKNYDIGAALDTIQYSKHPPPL

As to `OCCNC[C@@H](O)COc1ccc(OCc2ccccc2)c(OCc2ccccc2)c1` [YOK-1106], the “p62 activation/oligomerization, delivery to autophagosome and autophagy activity (p62 and LC3 puncta, co-existence)” value in the assay with p62 and LC3 is “delivering them to autophagosome and simultaneously increasing autophagy activity”. Besides, in the assay on LC3 (setting [1]), the “autophagy activity (level of LC3)” value is on record as “increasing the autophagy activity”.

As for `CC(C)NC[C@@H](O)COc1ccc(OCc2ccccc2)c(OCCc2ccccc2)c1` [YOK-1204, (R)-1-(4-(benzyloxy)-3-phenethoxyphenoxy)-3-(isopropylamino)propan-2-ol], the “p62 activation/oligomerization, delivery to autophagosome and autophagy activity (p62 and LC3 puncta, co-existence)” value in the assay with p62 and LC3 was “delivering them to autophagosome and simultaneously increasing autophagy activity”. In addition, in the assay on LC3 (setting [1]), the “autophagy activity (level of LC3)” value is given as “gradually increased; also recorded: increasing the autophagy activity”. In addition, the “p62 protein oligomerization activity (p62 monomer, oligomers and high-molecular aggregates)” value (shortened to “p62 protein oligomerization activity”) at p62 protein is given as “increasing the p62 protein oligomerization activity”.

Turning to `CC(C)NC[C@@H](O)COc1ccc(OCCc2ccccc2)c(OCCc2ccccc2)c1` [YOK-2204, (R)-1-(3,4-diphenethoxyphenoxy)-3-(isopropylamino)propan-2-ol], the “p62 activation/oligomerization, delivery to autophagosome and autophagy activity (p62 and LC3 puncta, co-existence)” value in the assay on p62 and LC3 is “delivering them to autophagosome and simultaneously increasing autophagy activity”. Besides, in the assay on LC3 (setting [1]), the “autophagy activity (level of LC3)” value is on record as “gradually increased; also recorded: increasing the autophagy activity”. Moreover, at p62 protein, the “p62 protein oligomerization activity” value is recorded as “increasing the p62 protein oligomerization activity”.

As to `CC(C)NC[C@@H](O)COc1ccc(OCCCc2ccccc2)c(OCCCc2ccccc2)c1` [YOK-3304, (R)-1-(3,4-bis(3-phenylpropoxy)phenoxy)-3-(isopropylamino)propan-2-ol], the “p62 activation/oligomerization, delivery to autophagosome and autophagy activity (p62 and LC3 puncta, co-existence)” value with p62 and LC3 was “delivering them to autophagosome and simultaneously increasing autophagy activity”. In addition, the “autophagy activity (level of LC3)” value in the assay on LC3 (setting [1]) is listed as “gradually increased”. In addition, the “p62 protein oligomerization activity” value at p62 protein is “increasing the p62 protein oligomerization activity”.

For `CC(C)NC[C@@H](O)COc1ccc(OCCCCc2ccccc2)c(OCCCCc2ccccc2)c1` [YOK-4404, (R)-1-(3,4-bis(4-phenylbutoxy)phenoxy)-3-(isopropylamino)propan-2-ol], the “p62 activation/oligomerization, delivery to autophagosome and autophagy activity (p62 and LC3 puncta, co-existence)” value in the assay with p62 and LC3 was “delivering them to autophagosome and simultaneously increasing autophagy activity”. Besides, the “autophagy activity (level of LC3)” value in the assay on LC3 (setting [1]) is “increasing the autophagy activity”; in the assay on LC3 (1, 2, 5, 10 and 20 μM, 24 hours, FIG. 3), “increasing the autophagy activity”. Further, on p62 protein, the “p62 protein oligomerization activity” value is given as “increasing the p62 protein oligomerization activity”.

Consider `CCOC(=O)C(C)NC[C@@H](O)COc1ccc(OCc2ccccc2)c(OCc2ccccc2)c1` (stereo partly drawn) [YOK-A-1104, Ethyl (R)-(3-(3,4-bis(benzyloxy)phenoxy)-2-hydroxypropyl)alanineate, reference compound], for which the “p62 activation/oligomerization, delivery to autophagosome and autophagy activity (p62 and LC3 puncta), control compounds” value with p62 and LC3 is “delivering them to autophagosome and simultaneously increasing autophagy activity”.

Turning to `COC(=O)CNC[C@@H](O)COc1ccc(OCc2ccccc2)c(OCc2ccccc2)c1` [YOK-G-1104, Methyl (R)-(3-(3,4-bis(benzyloxy)phenoxy)-2-hydroxypropyl)glycineate, reference compound], in the assay with p62 and LC3, the “p62 activation/oligomerization, delivery to autophagosome and autophagy activity (p62 and LC3 puncta), control compounds” value was “delivering them to autophagosome and simultaneously increasing autophagy activity”.

Consider `OCCNC[C@@H](O)COc1cccc(OCc2ccc(Cl)cc2)c1` [YT-6-7, (R)-1-(3-((4-chlorobenzyl)oxy)phenoxy)-3-((2-hydroxyethyl)amino)propan-2-ol], for which the “autophagy activity (level of LC3)” value in the assay on LC3 (setting [2]) was “gradually increased”. Also, on p62 protein, the “p62 protein oligomerization activity” value is given as “increasing the p62 protein oligomerization activity”.

As to `OCCNC[C@@H](O)COc1cccc(OCc2ccc(F)cc2)c1` [YT-6-8, (R)-1-(3-((4-fluorobenzyl)oxy)phenoxy)-3-((2-hydroxyethyl)amino)propan-2-ol], the “autophagy activity (level of LC3)” value in the assay with LC3 (setting [2]) was “gradually increased”. Besides, the “p62 protein oligomerization activity” value on p62 protein is on record as “increasing the p62 protein oligomerization activity”.

`N=C(N)NCCNC[C@@H](O)COc1ccc(OCc2ccc(Cl)cc2)c(OCc2ccc(Cl)cc2)c1` [YT-9-1]: the “autophagy activity (level of LC3)” value in the assay on LC3 (setting [2]) is “gradually increased”. Also, the “p62 protein oligomerization activity” value at p62 protein is given as “increasing the p62 protein oligomerization activity”.

`N=C(N)NCCNC[C@@H](O)COc1ccc(OCc2ccc(F)cc2)c(OCc2ccc(F)cc2)c1` [YT-9-2]: the “autophagy activity (level of LC3)” value with LC3 (setting [2]) is “gradually increased”. Further, the “p62 protein oligomerization activity” value at p62 protein is recorded as “increasing the p62 protein oligomerization activity”.

Regarding `OCCNCc1ccc(OCc2ccccc2)c(O)c1` [YTK-1005, reference compound], the “p62 activation/oligomerization, delivery to autophagosome and autophagy activity (p62 and LC3 puncta), control compounds” value in the assay with p62 and LC3 was “delivering them to autophagosome and simultaneously increasing autophagy activity”.

For `OCCCCc1ccc(OCc2ccccc2)c(OCc2ccccc2)c1` [YTK-1105-1, 4-(3,4-bis(benzyloxy)phenyl)butan-1-ol, reference compound], in the assay on p62 and LC3, the “p62 activation/oligomerization, delivery to autophagosome and autophagy activity (p62 and LC3 puncta), control compounds” value was “delivering them to autophagosome and simultaneously increasing autophagy activity”. For the same molecule, the “autophagy activity (level of LC3), control compounds” value in the assay on LC3 (different concentrations and different times, FIG. 5) is on record as “do not increase autophagy activity”.
